Source: patent US8227512B2, “Pharmaceutical composition containing daurinol for the prevention and treatment of cancers” (Korea Institute of Science and Technology, priority 2007, dated 2012)
Where “and” joins values, the source holds several entries; their conditions need not be identical. Equal values may be shown once. Read-outs that look alike come from different tables or passages of the source.

Legend:
HCT116 cells [1] = experiment: Apoptosis by annexin V-FITC / propidium iodide co-staining, flow cytometry; format: cell-based, human; conditions: HCT116, 5 μM daurinol, 24 and 48 hours (FIGS. 7 and 8)
From the text: The induction of apoptosis by daurinol obtained by the method of Example 2 was thoroughly examined by co-staining with annexin V—FITC (fluorescein isothiocyanate) and propidium iodide.
In normal cells, phosphatidylserine, one of the cell membrane forming phospholipids, is always heading toward inside of the cell. When early apoptosis is induced, this phosphatidylserine is exposed outside of the cell. Thus, the apoptotic cells can be detected by using green fluorescence labeled annexin V that is selectively bound to phosphatidylserine.
HCT116 cells were inoculated in 60×15 cm culture dishes at the concentration of 5×10^5 cells per dish, followed by culture for 24 hours. Daurinol dissolved in DMSO (Dimethyl Sulfoxide) was treated thereto at the concentrations of 5 μM for 24 and 48 hours. The cells were harvested and washed with DPBS (Dulbecco's Phosphate Buffered Saline). 1×10^6 cells were stained with annexin V-FITC (fluorescein isothiocyanate) and propidium iodide for 15 minutes, and then were analyzed by flow cytometry.

HCT116 [2] = experiment: Cell cycle analysis, propidium iodide staining, flow cytometry; format: cell-based, human; conditions: for Cell cycle ratio, sub G0/G1 ratio (index for apoptosis): 48 hours (control 0.1); for Cell cycle ratio, S phase ratio: 48 hours (control 33.7)
Procedure: (§1) Human colon cancer cell lines HCT116 and DLD-1 were inoculated in 60×15 cm culture dishes at the concentration of 5×10^5 cells per dish, followed by culture for 24 hours. Daurinol dissolved in DMSO (Dimethyl Sulfoxide) was treated thereto at the concentrations of 5-20 μM for 24, 48 and 72 hours, respectively. The cells were harvested and washed with DPBS (Dulbecco's Phosphate Buffered Saline), followed by fixation in 70% ethanol at −20° C. for more than one day. The cells were washed again with DPBS and stained with propidium iodide for 20 minutes, and then were analyzed by flow cytometry. The propidium iodide selectively stains intracellular DNA. So, the fluorescence by propidium iodide and cell numbers was used as variants to make a graph, showing the pattern of cell cycle. According to this graph, cell cycle blocking activity of daurinol and apoptosis induced by daurinol could be confirmed.

DLD-1 [3] = experiment: as above; format: cell-based, human; conditions: for Cell cycle ratio, sub G0/G1 ratio (index for apoptosis): 48 hours (control 0); for Cell cycle ratio, S phase ratio: 48 hours (control 29.6)
Procedure: as §1

HCT116 [4] = experiment: MTT cancer cell growth inhibition by daurinol; format: cell-based; conditions: Homo sapiens, HCT-116, read-out: IC50 (concentration for 50% of cell growth inhibition)
Procedure: (§2) Daurinol obtained by the method of Example 2 was treated to human colon cancer cell lines HCT116 (American type of cell culture, ATCC) and DLD-1 (American type of cell culture, ATCC) to investigate the cancer cell growth inhibitory effect. The cell lines were cultured in MEM supplemented with 10% fetal bovine serum and antibiotics (penicillin and streptomycin) in a 37° C., 5% CO2 incubator. Sub-culture was performed every 2-3 days.
(§3) HCT116 and DLD-1 were inoculated in a 96-well plate at the concentration of 5×10^3 cells/well, followed by culture for 24 hours. Daurinol dissolved in DMSO (Dimethyl Sulfoxide) was treated thereto at different concentrations of 0.1-200 μg/ml for 24 and 48 hours. MTT reagent (methylthiazol-2-yl-2.5 diphenyl tetrazolium bromide) was treated thereto. 1-3 hours later, OD450 was measured to investigate cell growth.

DLD-1 [5] = experiment: MTT cancer cell growth inhibition by daurinol; format: cell-based; conditions: Homo sapiens, read-out: IC50 (concentration for 50% of cell growth inhibition)
Procedure: as §2, §3

HCT116 cells [6] = experiment: Morphological changes under DIC light microscope; format: cell-based, human; conditions: HCT116, 5 μM daurinol
Procedure: Daurinol obtained by the method of Example 2 was treated to cancer cells and then morphological changes of the cancer cells were observed under DIC (differential interference contrast) light microscope.
HCT116 cells were inoculated in 60×15 cm culture dishes at the concentration of 5×10^5 cells per dish, followed by culture for 24 hours. 5 μM of daurinol dissolved in DMSO (Dimethyl Sulfoxide) was treated thereto, followed by culture for 12, 24, 48, 72 and 96 hours respectively. Morphological changes of the cells were observed under DIC light microscope.

In the case of COc1cc2c(-c3ccc4c(c3)OCO4)c3c(cc2cc1O)COC3=O [daurinol], the “Apoptosis (annexin V-FITC positive cells) versus control” value (HCT116 cells [1]) is reported as “significantly induced”, the “S phase of cell cycle versus untreated control” value (HCT116 [2]; HCT116, 5 μM daurinol, 24, 48 and 72 hours (FIG. 5)) is reported as “significantly increased” and the “Cell cycle ratio, sub G0/G1 ratio (index for apoptosis)” value (HCT116 [2]; HCT116, 5 μM daurinol) is reported as 3.8%. The “Cell cycle ratio, S phase ratio” value (HCT116 [2]; HCT116, 5 μM daurinol) was 52.8%, the “sub G0/G1 ratio, the index for apoptosis” value (HCT116 [2]; HCT116, 5 μM daurinol, different treatment times (FIG. 6)) was “significantly increased” and the “Cell cycle ratio, sub G0/G1 ratio (index for apoptosis)” value (HCT116 [2]; HCT116, 10 μM daurinol) was 4.6%. The “Cell cycle ratio, S phase ratio” value (HCT116 [2]; HCT116, 10 μM daurinol) was 61.1%, the “Cell cycle ratio, sub G0/G1 ratio (index for apoptosis)” value (HCT116 [2]; HCT116, 20 μM daurinol) was 9.4% and the “Cell cycle ratio, S phase ratio” value (HCT116 [2]; HCT116, 20 μM daurinol) was 60.8%. For the same compound, the “Cell cycle ratio, sub G0/G1 ratio (index for apoptosis)” value (DLD-1 [3]; DLD-1, 5 μM daurinol) was 0.3%, the “Cell cycle ratio, S phase ratio” value (DLD-1 [3]; DLD-1, 5 μM daurinol) was 68.6% and the “Cell cycle ratio, sub G0/G1 ratio (index for apoptosis)” value (DLD-1 [3]; DLD-1, 10 μM daurinol) was 0.6%. For the same compound, the “Cell cycle ratio, S phase ratio” value (DLD-1 [3]; DLD-1, 10 μM daurinol) was 64.1%, the “Cell cycle ratio, sub G0/G1 ratio (index for apoptosis)” value (DLD-1 [3]; DLD-1, 20 μM daurinol) was 1.4% and the “Cell cycle ratio, S phase ratio” value (DLD-1 [3]; DLD-1, 20 μM daurinol) was 68.0%. The IC50 (HCT116 [4]; HCT116, 24 hours treatment) was 4.4 µg/mL and 12.4 µM, the IC50 (HCT116 [4]; HCT116, 48 hours treatment) was 0.7 µg/mL and 2.07 µM and the IC50 (DLD-1 [5]; DLD-1, 24 hours treatment) was 10.5 µg/mL and 30 µM. The IC50 (DLD-1 [5]; DLD-1, 48 hours treatment) was 1.4 µg/mL and 4.08 µM, the “Morphological changes of the cells” value (HCT116 cells [6]; after 24 hours (FIG. 9)) was “the boundary of the cells became obvious” and the “Morphological changes of the cells” value (HCT116 cells [6]; after 48 hours (FIG. 9)) was “started to detach from the bottom of culture dish”.
